The subject of one experiment is UO-31. The experiment in a line: Growth inhibition of human UO31 cells at 10^-5 M incubated for 48 hrs by sulforhodamine B assay relative to control. Format: functional. The conditions noted are these: UO-31, 48 h, read-out: GI. In general terms: Sulforhodamine B stains cellular protein and so reports cell mass.
A further experiment relates to MCF7. The experiment in a line: Growth inhibition of human MCF7 cells at 10^-5 M incubated for 48 hrs by sulforhodamine B assay relative to control. Format: functional. The conditions noted are these: MCF7, 48 h, read-out: GI.
Experiment [1] relates to C6. Nature of the experiment: Antiproliferative activity against rat C6 cells assessed as decrease in cell viability measured after 48 hrs by MTT assay. The conditions noted are these: for IC50: C6, 48 h. Format: functional, cell-based.
Experiment [2] concerns C6. Nature of the experiment: Induction of morphological changes in rat C6 cells assessed as increase in total length of processes measured after 24 hrs by inverted microscopy analysis relative to control. Format: functional.
Experiment [3] concerns C6. Nature of the experiment: Cell cycle arrest in rat C6 cells assessed as decrease in cell population at G2/M phase measured after 24 hrs by propidium iodide staining based flow cytometry analysis. The experiment is classed as functional. For orientation: A flow cytometer gives signals particle by particle.
In another experiment the target is T1, Dihydrofolate reductase (Homo sapiens, UniProt P00374).
T1 sequence (P00374 whole entry): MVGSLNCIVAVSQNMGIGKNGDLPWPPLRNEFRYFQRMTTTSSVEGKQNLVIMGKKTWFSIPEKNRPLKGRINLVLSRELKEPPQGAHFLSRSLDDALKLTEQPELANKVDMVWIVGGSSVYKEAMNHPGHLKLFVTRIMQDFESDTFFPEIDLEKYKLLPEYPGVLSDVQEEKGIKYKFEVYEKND
Nature of the experiment: Inhibition of human dihydrofolate reductase using dihydrofolic acid as substrate preincubated for 1 hr in presence of NADPH followed by substrate addition by enzyme immunoassay.

The subject of experiment [4] is C6. The experiment in a line: Induction of morphological changes in rat C6 cells assessed as cellular senescence by measuring cell rounding with distorted morphology after 24 hrs by inverted microscopy analysis. Format: functional, cell-based.
For experiment [5], the system named is C6. The experiment in a line: Cell cycle arrest in rat C6 cells assessed as cell population at G0/G1 phase measured after 24 hrs by propidium iodide staining based flow cytometry analysis. Format: functional.
The test system of experiment [6] is C6. The experiment in a line: Cell cycle arrest in rat C6 cells assessed as increase in cell population at sub G0 phase measured after 24 hrs by propidium iodide staining based flow cytometry analysis. The experiment is classed as functional.
In experiment [7] the test system is C6. The experiment in a line: Cell cycle arrest in rat C6 cells assessed as decrease in cell population at S phase measured after 24 hrs by propidium iodide staining based flow cytometry analysis. Format: functional.

The structures appear in SMILES notation. Active and inactive are the calls of the source. The calls are words filed in the database; no cut-off is given here.

What is called IC50 is the point on the concentration scale where inhibition reaches its midpoint. For `O=C1Nc2ccccc2/C1=C/c1cn(CC(O)Cn2c3ccccc3c(=O)c3ccccc32)c2ccccc12` (racemic), the figures for the inhibition of growth at 10 µM in the experiment on UO-31 and in the experiment with MCF7 were 70% and 55%, respectively. Besides, in the experiment with C6 [1], the inhibition entry was “Dose-dependent effect”. Also, the results for the IC50 with C6 [1] and on Dihydrofolate reductase were 250 to 1500 nM and 100 nM, respectively. In the experiment on C6 [2], the Activity is recorded as 16 - 18%. Further, the inhibition entry with C6 [3] was “Active”. The result in the experiment on C6 [4] was Active. Also, in the experiment with C6 [5], the outcome was inactive.

As to `C[C@H](NC(=O)CNC(=O)c1cccc2c(=O)c3ccccc3[nH]c12)C(=O)O`, in the experiment with C6 [1], the inhibition entry was “Dose-dependent effect” and the IC50 was in the range of 250 to 1500 nM. In addition, the IC50 at Dihydrofolate reductase turned out to be 670 nM. Further, the outcome in the experiment on C6 [4] was Active. The result with C6 [5] was inactive.

With `COc1cccc2c1C(=O)c1c(O)c3c(c(O)c1C2=O)C[C@@](O)(C(=O)CO)C[C@@H]3O[C@H]1C[C@H](N)[C@@H](O)[C@H](C)O1`, the outcome in the experiment on C6 [6] was Active. Also, the inhibition result with C6 [7] and in the experiment with C6 [3] was “Active” in each case.

For the compound `CC1=NN(c2cccc(Cl)c2)C(=O)/C1=C\c1cn(CC(O)Cn2c3ccccc3c(=O)c3ccccc32)c2ccccc12` (racemic), at Dihydrofolate reductase, the IC50 was 1800 nM.

Consider `CN1C(=O)C(=Cc2cn(CC(O)Cn3c4ccccc4c(=O)c4ccccc43)c3ccccc23)C(=O)N(C)C1=O` (racemic), for which the IC50 on Dihydrofolate reductase is 210 nM.

These data come from ChEMBL document CHEMBL4359904, “Structural tuning of acridones for developing anticancer agents targeting dihydrofolate reductase” (Bioorg Med Chem Lett, 2019).
